Measurements reported in patent US10633407B2, “14-membered ketolides and methods of their preparation and use” (President and Fellows of Harvard College, priority 2014, dated 2020).
Values after ≈ are worked out from the molar mass of the structure shown.

Key:
Assay in all cases: CLSI broth dilution MIC determination
Type in all cases: cell-based
A. baumannii ATCC 19606 = conditions: Acinetobacter baumannii, ATCC19606; A. baumannii ATCC 19606 (MP-15); read-out: MIC
P. aeruginosa ATCC 27853 = conditions: Pseudomonas aeruginosa, ATCC27853; P. aeruginosa ATCC 27853 (MP-3); read-out: MIC
P. aeruginosa MP-7 PAO1 = conditions: Pseudomonas aeruginosa, read-out: MIC
E. coli MP-541 clinical = conditions: Escherichia coli, MP541CLINICAL, read-out: MIC
Text: (§1) MIC data was collected for the novel macrolides that this platform has produced against over 21 unique strains of B. subtilis, E. coli, S. aureus, S. pneumoniae, and H. influenzae, including several multidrug-resistant strains, with a special focus on macrolide resistant mechanisms (vide supra). Azithromycin (Azithro) and Solithromycin (Solithro) were included as a control macrolides in many cases. CLSI standard procedures for broth dilution MIC determination were used. […] These genotypes can be constitutive or inducible.

S. aureus ATCC 29213 = conditions: Staphylococcus aureus, ATCC29213; S. aureus ATCC 29213 (MP-12); read-out: MIC
Text: as §1

E. coli ATCC 25922 = conditions: Escherichia coli, ATCC25922, E. coli ATCC 25922 (MP-4); read-out: MIC
Text: as §1

[1] = system: E. coli MP-9 ATCC25922:tolC; conditions: Escherichia coli, ATCC25922
Text: as §1

[2] = system: S. aureus MP-17 ATCCBAA-977 (BAA 977 iErm); conditions: Staphylococcus aureus; S. aureus MP-17, ATCCBAA-977, iErm; read-out: MIC
Text: as §1

S. aureus MRSA: USA300 = conditions: Staphylococcus aureus; S. aureus MRSA: USA300 (MP-549, msr(a)); read-out: MIC
Text: as §1

[3] = system: S. aureus (MRSA) MP-513 ST-228 cErm (Clinical-cErm); conditions: Staphylococcus aureus, read-out: MIC
Text: as §1

[4] = system: E. coli MP-532 clinical-cErmB; conditions: Escherichia coli
Text: as §1

[5] = system: K. pneumoniae MP-546 Clinical-MDR; conditions: Klebsiella pneumoniae, read-out: MIC
[6] = system: A. baumannii MP-577 Clinical-AZT low; conditions: Acinetobacter baumannii, read-out: MIC
K. pneumoniae ATCC 10031 = conditions: Klebsiella pneumoniae, ATCC10031, K. pneumoniae ATCC 10031 (MP-14); read-out: MIC
[7] = system: P. aeruginosa MP-8 PAO1:mex (mex-oprM-deletion); conditions: Pseudomonas aeruginosa, PAO1
[8] = system: A. baumannii MP-576 Clinical-MDR; conditions: Acinetobacter baumannii, read-out: MIC
[9] = system: K. pneumoniae MP-548 clinical; conditions: Klebsiella pneumoniae, MP548CLINICAL, read-out: MIC

Structure (SMILES)	MIC (A. baumannii ATCC 19606)	MIC (P. aeruginosa ATCC 27853)	MIC (P. aeruginosa MP-7 PAO1)	MIC (E. coli MP-541 clinical)	MIC (S. aureus ATCC 29213)	MIC (E. coli ATCC 25922)	MIC [1]	MIC [2]	MIC (S. aureus MRSA: USA300)	MIC [3]	MIC [4]	MIC [5]	MIC [6]	MIC (K. pneumoniae ATCC 10031)	MIC [7]	MIC [8]	MIC [9]
CC[C@H]1OC(=O)[C@@](C)(F)C(=O)[C@H](C)[C@@H](O[C@@H]2OC(C)CC(N(C)C)C2O)[C@](C)(OC)C[C@@H](C)C(=O)[C@H](C)[C@H]2N(CC#CCn3cc(-c4ncccn4)nn3)C(=O)O[C@]12C (stereo partly shown) [FSM-22741]	8 µg/mL (≈ 9.66 µM)	> 64 µg/mL	> 64 µg/mL	32 µg/mL (≈ 38.6 µM)	0.125 µg/mL (≈ 0.151 µM)	16 µg/mL (≈ 19.3 µM)	4 µg/mL (≈ 4.83 µM)	0.125 µg/mL (≈ 0.151 µM)	0.25 µg/mL (≈ 0.302 µM)	> 64 µg/mL	> 64 µg/mL	> 64 µg/mL	32 µg/mL (≈ 38.6 µM)	4 µg/mL (≈ 4.83 µM)	8 µg/mL (≈ 9.66 µM)	> 64 µg/mL	64 µg/mL (≈ 77.3 µM)
CC[C@H]1OC(=O)[C@@](C)(F)C(=O)[C@H](C)[C@@H](O[C@@H]2OC(C)CC(N(C)C)C2O)[C@](C)(OC)C[C@@H](C)C(=O)[C@H](C)[C@H]2N(CC#CCn3cc(-c4cc(N)nc(N)n4)nn3)C(=O)O[C@]12C (stereo partly shown) [FSM-22742]	16 µg/mL (≈ 18.6 µM)	64 µg/mL (≈ 74.6 µM)	64 µg/mL (≈ 74.6 µM)	16 µg/mL (≈ 18.6 µM)	0.5 µg/mL (≈ 0.583 µM)	16 µg/mL (≈ 18.6 µM)	2 µg/mL (≈ 2.33 µM)	1 µg/mL (≈ 1.17 µM)	1 µg/mL (≈ 1.17 µM)	> 64 µg/mL	> 64 µg/mL	> 64 µg/mL	32 µg/mL (≈ 37.3 µM)	4 µg/mL (≈ 4.66 µM)	8 µg/mL (≈ 9.32 µM)	> 64 µg/mL	64 µg/mL (≈ 74.6 µM)
CC[C@H]1OC(=O)[C@@](C)(F)C(=O)[C@H](C)[C@@H](O[C@@H]2OC(C)CC(N(C)C)C2O)[C@](C)(OC)C[C@@H](C)C(=O)[C@H](C)[C@H]2N(CC#CCn3cc(-c4cc(N)ncn4)nn3)C(=O)O[C@]12C (stereo partly shown) [FSM-22745]	32 µg/mL (≈ 38 µM)	> 64 µg/mL	> 64 µg/mL	32 µg/mL (≈ 38 µM)	0.5 µg/mL (≈ 0.593 µM)	32 µg/mL (≈ 38 µM)	4 µg/mL (≈ 4.75 µM)	1 µg/mL (≈ 1.19 µM)	1 µg/mL (≈ 1.19 µM)	> 64 µg/mL	> 64 µg/mL	> 64 µg/mL	64 µg/mL (≈ 75.9 µM)	8 µg/mL (≈ 9.49 µM)	16 µg/mL (≈ 19 µM)	> 64 µg/mL	> 64 µg/mL
CC[C@H]1OC(=O)[C@@](C)(F)C(=O)[C@H](C)[C@@H](O[C@@H]2OC(C)CC(N(C)C)C2O)[C@](C)(OC)C[C@@H](C)C(=O)[C@H](C)[C@H]2N(CC#CCn3cc(-c4cnccn4)nn3)C(=O)O[C@]12C (stereo partly shown) [FSM-22746]	16 µg/mL (≈ 19.3 µM)	> 64 µg/mL	> 64 µg/mL	64 µg/mL (≈ 77.3 µM)	0.25 µg/mL (≈ 0.302 µM)	32 µg/mL (≈ 38.6 µM)	4 µg/mL (≈ 4.83 µM)	0.25 µg/mL (≈ 0.302 µM)	0.5 µg/mL (≈ 0.604 µM)	> 64 µg/mL	> 64 µg/mL	> 64 µg/mL	64 µg/mL (≈ 77.3 µM)	8 µg/mL (≈ 9.66 µM)	16 µg/mL (≈ 19.3 µM)	> 64 µg/mL	> 64 µg/mL
CC[C@H]1OC(=O)[C@@](C)(F)C(=O)[C@H](C)[C@@H](O[C@@H]2OC(C)CC(N(C)C)C2O)[C@](C)(OC)C[C@@H](C)C(=O)[C@H](C)[C@H]2N(CC#CCn3cc(-c4cncc(N)n4)nn3)C(=O)O[C@]12C (stereo partly shown) [FSM-22747]	16 µg/mL (≈ 19 µM)	> 64 µg/mL	> 64 µg/mL	32 µg/mL (≈ 38 µM)	0.25 µg/mL (≈ 0.297 µM)	32 µg/mL (≈ 38 µM)	4 µg/mL (≈ 4.75 µM)	0.25 µg/mL (≈ 0.297 µM)	0.5 µg/mL (≈ 0.593 µM)	> 64 µg/mL	> 64 µg/mL	> 64 µg/mL	32 µg/mL (≈ 38 µM)	8 µg/mL (≈ 9.49 µM)	16 µg/mL (≈ 19 µM)	> 64 µg/mL	> 64 µg/mL
